Test results as given in patent publication US20220281821A1, “INDAZOLE COMPOUNDS AND THEIR PHARMACEUTICAL COMPOSITIONS” (Jinan University, priority 2019, published 2022).

Tests used:
BaF3-ETV6-NTRK3 = molecular target: T1, BaF3-ETV6-NTRK3 (Homo sapiens, UniProt Q16288); assay: Cell proliferation inhibition (CCK-8), BaF3-ETV6-NTRK3 stable strain; type: cell-based, mouse; settings: BaF3-ETV6-NTRK3, 72 hours
T1 construct: fused on or other part: P41212 (Transcription factor ETV6)
Outline: (§1)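 Ba/F3 cells stably electroporated with ETV6-NTRK3, CD74-NTRK1 or ETV6-NTRK2, selected with G418 and grown without IL3, then cloned by limiting dilution.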

TRKA = molecular target: T2, TRKA (Homo sapiens, UniProt P04629); assay: Z′-LYTE kinase activity assay, TRKA; type: biochemical; settings: ATP 400 uM
T2 construct: purchased life technologies PV3144
T2 sequence (P04629 440-796 limits assumed): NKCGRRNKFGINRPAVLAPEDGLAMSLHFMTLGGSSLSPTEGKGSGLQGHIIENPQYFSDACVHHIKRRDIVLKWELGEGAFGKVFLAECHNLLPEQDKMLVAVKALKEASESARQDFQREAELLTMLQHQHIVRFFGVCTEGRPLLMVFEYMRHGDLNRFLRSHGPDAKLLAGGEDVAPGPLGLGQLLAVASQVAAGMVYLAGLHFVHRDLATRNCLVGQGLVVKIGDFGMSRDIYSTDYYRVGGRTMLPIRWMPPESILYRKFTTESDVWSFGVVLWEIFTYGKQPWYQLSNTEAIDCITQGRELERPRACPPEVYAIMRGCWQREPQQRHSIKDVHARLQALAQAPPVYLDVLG
Description: (§2) Kinase activity assay: Z′-LYTE™ technology (detection by fluorescence, enzyme-conjugated format, based on the difference in sensitivity of phosphorylated and non-phosphorylated peptides to proteolytic cleavage) was applied, and using the principle of fluorescence resonance energy transfer (FRET), a Z′-LYTE™ FRET peptide substrate (Z′-LYTE™ Tyrosine 1 Peptide Substrate, Invitrogen, PV3190), and a secondary reaction were used to detect the inhibitory activity of the compounds on TRKs (TRK1, TRK2, TRK3) (life technologies, PV3144, PV3616, PV3617).
(§3) Enzymatic reaction: In a 384-well plate, 5 μL of an enzyme-substrate system (50 mM HEPES pH 7.5, 0.01% BRIJ-35, 10 mM MgCl2, 1 mM EGTA, 2 μM Tyr 01 Peptide Substrate) was added and 5 nL of compound (concentration gradient) was transferred thereto by using the echo520 ultramicro liquid pipetting system. […] After shaking and mixing, centrifuging was performed. A reaction was carried out at 30° C. in the dark for 1.5 hours.
(§4) The data were analyzed as follows:
(§5) Phosphorylation ratio=1−{(emission ratio×F100%−C100%)/[C0%−C100%+emission ratio×(F100%−F0%)]}×100;
(§6) Inhibition rate=100×(1−compound phosphorylation ratio/negative control phosphorylation ratio).
(§7) IC50 values were calculated by using GraphPad Prism 5.0 software.

BaF3-CD74-NTRK1 = molecular target: T3, BaF3-CD74-NTRK1 (Homo sapiens, UniProt P04629); assay: Cell proliferation inhibition (CCK-8), BaF3-CD74-NTRK1 stable strain; type: cell-based, mouse; settings: BaF3-CD74-NTRK1, 72 hours
T3 construct: fused on or other part: P04233 (HLA class II histocompatibility antigen gamma chain)
T3 sequence (P04629 510-796 limits assumed): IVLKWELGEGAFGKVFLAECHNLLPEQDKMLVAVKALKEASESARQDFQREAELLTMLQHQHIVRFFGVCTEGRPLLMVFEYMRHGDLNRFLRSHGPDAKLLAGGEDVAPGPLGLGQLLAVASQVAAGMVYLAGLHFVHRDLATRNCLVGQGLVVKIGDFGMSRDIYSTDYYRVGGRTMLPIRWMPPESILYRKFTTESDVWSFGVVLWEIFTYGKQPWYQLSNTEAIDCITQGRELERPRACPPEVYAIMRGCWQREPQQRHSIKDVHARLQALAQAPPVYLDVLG
Outline: as §1

TRKC = molecular target: T4, TRKC (Homo sapiens, UniProt Q16288); assay: Z′-LYTE kinase activity assay, TRKC; type: biochemical; settings: ATP 50 uM
T4 construct: purchased life technologies PV3617
T4 sequence (Q16288 32-839): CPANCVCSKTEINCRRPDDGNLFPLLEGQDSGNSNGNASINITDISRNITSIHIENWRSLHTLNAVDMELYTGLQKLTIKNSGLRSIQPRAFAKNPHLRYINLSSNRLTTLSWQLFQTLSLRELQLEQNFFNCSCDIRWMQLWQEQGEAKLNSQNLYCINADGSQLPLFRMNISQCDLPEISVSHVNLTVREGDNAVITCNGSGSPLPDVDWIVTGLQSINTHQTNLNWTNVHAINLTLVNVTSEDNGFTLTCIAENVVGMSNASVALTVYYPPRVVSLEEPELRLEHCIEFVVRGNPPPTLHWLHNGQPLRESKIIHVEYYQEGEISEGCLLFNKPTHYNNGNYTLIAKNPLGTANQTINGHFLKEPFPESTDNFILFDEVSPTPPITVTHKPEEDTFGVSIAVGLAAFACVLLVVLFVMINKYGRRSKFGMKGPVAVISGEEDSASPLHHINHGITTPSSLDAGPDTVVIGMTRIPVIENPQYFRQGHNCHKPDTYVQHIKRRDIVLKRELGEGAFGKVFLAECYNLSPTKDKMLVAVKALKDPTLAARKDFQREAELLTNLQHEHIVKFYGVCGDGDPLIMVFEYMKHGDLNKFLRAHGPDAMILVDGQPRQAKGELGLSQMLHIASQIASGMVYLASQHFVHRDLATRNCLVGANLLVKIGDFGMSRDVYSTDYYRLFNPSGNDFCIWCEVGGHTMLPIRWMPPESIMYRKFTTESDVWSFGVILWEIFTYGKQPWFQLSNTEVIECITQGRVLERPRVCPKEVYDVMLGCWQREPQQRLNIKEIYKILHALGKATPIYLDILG
Description: as §2, §3, §4, §7

BaF3-ETV6-NTRK2 = molecular target: T5, BaF3-ETV6-NTRK2 (Homo sapiens, UniProt Q16620); assay: Cell proliferation inhibition (CCK-8), BaF3-ETV6-NTRK2 stable strain; type: cell-based, mouse; settings: BaF3-ETV6-NTRK2, 72 hours
T5 construct: fused on or other part: P41212 (Transcription factor ETV6)
T5 sequence (Q16620 538-822 limits assumed): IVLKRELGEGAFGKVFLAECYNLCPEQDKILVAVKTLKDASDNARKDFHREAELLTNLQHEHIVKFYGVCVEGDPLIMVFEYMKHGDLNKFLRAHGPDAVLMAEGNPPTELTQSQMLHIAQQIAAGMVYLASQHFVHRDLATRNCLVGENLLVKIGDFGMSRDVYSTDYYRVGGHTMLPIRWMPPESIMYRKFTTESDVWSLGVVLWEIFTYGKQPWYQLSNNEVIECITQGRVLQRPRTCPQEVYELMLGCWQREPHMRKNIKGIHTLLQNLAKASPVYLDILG
Outline: as §1

TRKB = molecular target: T6, TRKB (Homo sapiens, UniProt Q16620); assay: Z′-LYTE kinase activity assay, TRKB; type: biochemical; settings: ATP 25 uM
T6 construct: purchased life technologies PV3616
T6 sequence (Q16620 32-822): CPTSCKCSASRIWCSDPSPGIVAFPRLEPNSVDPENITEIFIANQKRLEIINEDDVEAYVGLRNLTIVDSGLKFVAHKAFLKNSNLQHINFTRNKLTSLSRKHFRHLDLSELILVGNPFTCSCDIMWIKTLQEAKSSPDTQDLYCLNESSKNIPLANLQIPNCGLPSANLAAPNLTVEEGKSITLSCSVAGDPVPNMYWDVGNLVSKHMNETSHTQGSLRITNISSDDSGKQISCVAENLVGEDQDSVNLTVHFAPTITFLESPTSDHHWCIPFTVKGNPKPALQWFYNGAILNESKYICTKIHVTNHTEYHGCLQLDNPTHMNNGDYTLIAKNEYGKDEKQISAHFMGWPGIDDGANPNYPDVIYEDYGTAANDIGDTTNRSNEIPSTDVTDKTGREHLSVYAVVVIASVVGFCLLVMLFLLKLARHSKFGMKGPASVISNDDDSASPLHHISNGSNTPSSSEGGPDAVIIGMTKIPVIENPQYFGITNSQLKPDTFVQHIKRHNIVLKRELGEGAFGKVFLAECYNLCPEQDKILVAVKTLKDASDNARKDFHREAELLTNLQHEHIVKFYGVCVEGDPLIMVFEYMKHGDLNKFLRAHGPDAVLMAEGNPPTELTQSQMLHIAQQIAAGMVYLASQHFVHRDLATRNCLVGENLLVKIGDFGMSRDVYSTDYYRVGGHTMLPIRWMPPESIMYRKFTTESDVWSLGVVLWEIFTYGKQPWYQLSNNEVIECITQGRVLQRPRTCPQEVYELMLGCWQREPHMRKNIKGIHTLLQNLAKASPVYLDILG
Description: as §2, §3, §4, §5, §6, §7

T1 sequence (Q16288 whole entry, the tested form may be a part): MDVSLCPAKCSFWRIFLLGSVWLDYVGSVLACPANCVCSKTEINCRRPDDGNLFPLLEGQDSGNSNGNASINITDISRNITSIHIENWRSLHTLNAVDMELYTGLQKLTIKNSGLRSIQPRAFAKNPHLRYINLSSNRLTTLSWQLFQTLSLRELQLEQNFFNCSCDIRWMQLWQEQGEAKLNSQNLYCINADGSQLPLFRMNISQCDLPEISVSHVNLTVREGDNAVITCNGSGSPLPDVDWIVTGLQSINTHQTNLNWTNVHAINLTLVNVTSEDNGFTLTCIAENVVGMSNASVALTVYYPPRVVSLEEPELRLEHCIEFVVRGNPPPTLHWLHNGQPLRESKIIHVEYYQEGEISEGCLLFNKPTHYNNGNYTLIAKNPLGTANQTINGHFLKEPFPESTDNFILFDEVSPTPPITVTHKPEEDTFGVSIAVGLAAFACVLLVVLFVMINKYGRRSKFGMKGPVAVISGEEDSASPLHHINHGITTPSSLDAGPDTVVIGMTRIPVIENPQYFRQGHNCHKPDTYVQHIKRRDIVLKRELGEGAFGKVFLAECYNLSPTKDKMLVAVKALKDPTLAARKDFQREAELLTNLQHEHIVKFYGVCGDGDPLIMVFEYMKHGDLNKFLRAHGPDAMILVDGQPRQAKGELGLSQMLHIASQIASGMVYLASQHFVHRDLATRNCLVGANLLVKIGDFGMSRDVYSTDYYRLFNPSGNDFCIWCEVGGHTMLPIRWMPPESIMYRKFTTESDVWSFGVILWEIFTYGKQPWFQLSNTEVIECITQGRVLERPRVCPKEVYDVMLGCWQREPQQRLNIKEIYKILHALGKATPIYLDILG

IC50 (BaF3-ETV6-NTRK3)	IC50 (TRKA)	IC50 (BaF3-CD74-NTRK1)	IC50 (TRKC)	IC50 (BaF3-ETV6-NTRK2)	IC50 (TRKB)	Compound
0.0752 µM	0.004 µM	0.126 µM	0.0086 µM	0.157 µM	0.0109 µM	Fc1cc(F)cc(Cc2ccc3[nH]nc(/C=C/c4cccnc4)c3c2)c1 [DYX-03, (E)-5-(3,5-difluorobenzyl)-3-(2-(pyridin-3-yl)vinyl)-1H-indazole]
0.284 µM	0.0106 µM	0.211 µM	0.104 µM	0.968 µM	0.0403 µM	Fc1cc(F)cc(Cc2ccc3[nH]nc(/C=C/c4ccccc4)c3c2)c1 [DYX-07, (E)-5-(3,5-difluorobenzyl)-3-styryl-1H-indazole]
3.03 µM	0.1 µM	8.31 µM	0.095 µM	4.7 µM	0.321 µM	C(#Cc1n[nH]c2ccc(Cc3ccccc3)cc12)c1ccccn1 [DYX-014, 5-benzyl-3-(pyridin-2-ylethynyl)-1H-indazole]
0.917 µM	0.026 µM	2.33 µM	0.012 µM	2.56 µM	0.082 µM	Fc1cccc(Cc2ccc3[nH]nc(C#Cc4ccccn4)c3c2)c1 [DYX-025, 5-(3-fluorobenzyl)-3-(pyridin-2-ylethynyl)-1H-indazole]
> 10 µM	> 1 µM	> 10 µM	> 1 µM	> 10 µM	> 1 µM	Fc1ccc(Cc2ccc3[nH]nc(C#Cc4ccccn4)c3c2)cc1 [DYX-027, 5-(4-fluorobenzyl)-3-(pyridin-2-ylethynyl)-1H-indazole]
0.133 µM	0.0093 µM	0.239 µM	0.0019 µM	0.335 µM	0.0324 µM	Fc1cccc(Cc2ccc3[nH]nc(/C=C/c4ccccn4)c3c2)c1 [DYX-038, (E)-5-(3-fluorobenzyl)-3-(2-(pyridin-2-yl)vinyl)-1H-indazole]
0.796 µM	0.044 µM	0.724 µM	0.008 µM	1.99 µM	0.04 µM	Fc1ccc(F)c(Cc2ccc3[nH]nc(C#Cc4ccccn4)c3c2)c1 [DYX-041, 5-(2,5-difluorobenzyl)-3-(pyridin-2-ylethynyl)-1H-indazole]
> 10 µM	0.501 µM	> 10 µM	0.652 µM	> 10 µM	> 1 µM	Fc1ccc(Cc2ccc3[nH]nc(C#Cc4ccccn4)c3c2)cc1F [DYX-044, 5-(3,4-difluorobenzyl)-3-(pyridin-2-ylethynyl)-1H-indazole]
0.959 µM	0.0332 µM	0.803 µM	0.0097 µM	0.168 µM	0.0153 µM	C(=C\c1n[nH]c2ccc(Cc3ccccc3)cc12)/c1ccccn1 [DYX-048, (E)-5-benzyl-3-(2-(pyridin-2-yl)vinyl)-1H-indazole]
> 10 µM	> 1 µM	> 10 µM	> 1 µM	> 10 µM	> 1 µM	Fc1ccc(Cc2ccc3[nH]nc(C#Cc4ccccn4)c3c2)c(F)c1 [DYX-051, 5-(2,4-difluorobenzyl)-3-(pyridin-2-ylethynyl)-1H-indazole]
3.25 µM	0.25 µM	7.94 µM	0.16 µM	8.82 µM	> 1 µM	Fc1ccc(Cc2ccc3[nH]nc(/C=C/c4ccccn4)c3c2)cc1F [DYX-059, (E)-5-(3,4-difluorobenzyl)-3-(2-(pyridin-2-yl)vinyl)-1H-indazole]
> 10 µM	0.818 µM	> 10 µM	0.62 µM	> 10 µM	0.375 µM	Fc1ccc(Cc2ccc3[nH]nc(/C=C/c4ccccn4)c3c2)c(F)c1 [DYX-060, (E)-5-(2,4-difluorobenzyl)-3-(2-(pyridin-2-yl)vinyl)-1H-indazole]
2.74 µM	0.217 µM	7.73 µM	0.113 µM	2.89 µM	0.385 µM	Fc1cccc(F)c1Cc1ccc2[nH]nc(C#Cc3ccccn3)c2c1 [DYX-071, 5-(2,6-difluorobenzyl)-3-(pyridin-2-ylethynyl)-1H-indazole]
> 10 µM	> 1 µM	2.48 µM	> 1 µM	> 10 µM	> 1 µM	Fc1cc(Cc2ccc3[nH]nc(C#Cc4ccccn4)c3c2)cc(F)c1F [DYX-075, 3-(pyridin-2-ylethynyl)-5-(3,4,5-trifluorobenzyl)-1H-indazole]

More lines, now with the values behind:

Compound	IC50 (BaF3-ETV6-NTRK3)	IC50 (TRKA)	IC50 (BaF3-CD74-NTRK1)	IC50 (TRKC)	IC50 (BaF3-ETV6-NTRK2)	IC50 (TRKB)
Fc1cc(F)cc(Cc2ccc3[nH]nc(/C=C/c4ccccn4)c3c2)c1 [CCB-489, (E)-5-(3,5-difluorobenzyl)-3-(2-(pyridin-2-yl)vinyl)-1H-indazole]	0.0562 µM	0.0046 µM	0.146 µM	0.0027 µM	0.165 µM	0.0144 µM
Fc1cc(F)cc(Cc2ccc3[nH]nc(/C=C/c4cccs4)c3c2)c1 [DYX-04, (E)-5-(3,5-difluorobenzyl)-3-(2-(thiophen-2-yl)vinyl)-1H-indazole]	0.24 µM	0.0218 µM	0.174 µM	0.0051 µM	0.728 µM	0.0324 µM
Fc1cc(F)cc(Cc2ccc3[nH]nc(/C=C/c4cnccn4)c3c2)c1 [DYX-05, (E)-5-(3,5-difluorobenzyl)-3-(2-(pyrazin-2-yl)vinyl)-1H-indazole]	0.419 µM	0.0016 µM	0.58 µM	0.006 µM	0.678 µM	0.0109 µM
Fc1cc(F)cc(Cc2ccc3[nH]nc(/C=C/c4ccc5ccccc5n4)c3c2)c1 [DYX-06, (E)-2-(2-(5-(3,5-difluorobenzyl)-1H-indazol-3-yl)vinyl)quinoline]	0.492 µM	0.0141 µM	0.64 µM	0.0774 µM	0.723 µM	0.0871 µM
Cc1cccc(/C=C/c2n[nH]c3ccc(Cc4cc(F)cc(F)c4)cc23)n1 [DYX-09, (E)-5-(3,5-difluorobenzyl)-3-(2-(6-methylpyridin-2-yl)vinyl)-1H-indazole]	0.168 µM	0.0106 µM	0.069 µM	0.0042 µM	0.0984 µM	0.0148 µM
Fc1cc(F)cc(Cc2ccc3[nH]nc(/C=C/c4ccccc4F)c3c2)c1 [DYX-10, (E)-5-(3,5-difluorobenzyl)-3-(2-fluorostyryl)-1H-indazole]	0.394 µM	0.0092 µM	0.63 µM	0.0188 µM	0.777 µM	0.0032 µM
Fc1ccccc1Cc1ccc2[nH]nc(C#Cc3ccccn3)c2c1 [DYX-021, 5-(2-fluorobenzyl)-3-(pyridin-2-ylethynyl)-1H-indazole]	2.6 µM	0.11 µM	4.93 µM	0.079 µM	3.09 µM	0.36 µM
Fc1ccccc1Cc1ccc2[nH]nc(/C=C/c3ccccn3)c2c1 [DYX-032, (E)-5-(2-fluorobenzyl)-3-(2-(pyridin-2-yl)vinyl)-1H-indazole]	0.718 µM	0.0145 µM	1.92 µM	0.012 µM	2.34 µM	0.0561 µM
Fc1ccc(Cc2ccc3[nH]nc(/C=C/c4ccccn4)c3c2)cc1 [DYX-042, (E)-5-(4-fluorobenzyl)-3-(2-(pyridin-2-yl)vinyl)-1H-indazole]	8.38 µM	0.251 µM	8.71 µM	0.114 µM	> 10 µM	0.281 µM
Fc1ccc(F)c(Cc2ccc3[nH]nc(/C=C/c4ccccn4)c3c2)c1 [DYX-054, (E)-5-(2,5-difluorobenzyl)-3-(2-(pyridin-2-yl)vinyl)-1H-indazole]	0.145 µM	0.0071 µM	0.546 µM	0.0054 µM	0.329 µM	0.0122 µM
Fc1cccc(Cc2ccc3[nH]nc(C#Cc4ccccn4)c3c2)c1F [DYX-074, 5-(2,3-difluorobenzyl)-3-(pyridin-2-ylethynyl)-1H-indazole]	2.2 µM	0.072 µM	2.5 µM	0.041 µM	2.83 µM	0.435 µM
Fc1cccc(F)c1Cc1ccc2[nH]nc(/C=C/c3ccccn3)c2c1 [DYX-081, (E)-5-(2,6-difluorobenzyl)-3-(2-(pyridin-2-yl)vinyl)-1H-indazole]	0.82 µM	0.0398 µM	1.44 µM	0.0266 µM	1.02 µM	0.17 µM
